This is an account of results in patent US4636500A, “N-(phenoxyalkyl)imidazoles as selective inhibitors of the thromboxane synthetase enzyme and pharmaceutical compositions thereof” (Pfizer Inc., priority 1978, dated 1987).

The target of assay [1] is T1, prostacyclin synthetase (Sus scrofa, UniProt A0A5G2QT35).
T1 construct: Pig aorta microsomes; from tissue; host or cells: pig aorta microsomes
T1 sequence (A0A5G2QT35 1-497): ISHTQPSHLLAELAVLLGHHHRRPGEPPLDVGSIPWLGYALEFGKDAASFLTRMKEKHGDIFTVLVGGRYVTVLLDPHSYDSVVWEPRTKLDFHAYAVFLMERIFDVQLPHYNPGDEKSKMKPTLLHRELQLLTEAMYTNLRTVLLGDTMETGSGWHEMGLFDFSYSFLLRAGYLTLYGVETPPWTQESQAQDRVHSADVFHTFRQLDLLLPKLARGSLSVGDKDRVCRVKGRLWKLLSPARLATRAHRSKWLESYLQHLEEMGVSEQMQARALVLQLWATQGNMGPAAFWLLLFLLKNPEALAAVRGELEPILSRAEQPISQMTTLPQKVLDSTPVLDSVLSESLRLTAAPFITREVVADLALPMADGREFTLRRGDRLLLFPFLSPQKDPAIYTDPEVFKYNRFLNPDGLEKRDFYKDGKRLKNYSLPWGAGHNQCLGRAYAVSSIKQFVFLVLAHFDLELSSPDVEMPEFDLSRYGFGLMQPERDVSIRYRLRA
The note with it: pig aorta microsomes; pre-incubation of the enzyme; literature; cited from earlier work.

A further assay concerns the target T2, thromboxane synthetase (Homo sapiens, UniProt P24557).
T2 construct: human platelet microsomes; from tissue; host or cells: human blood platelets (indomethacin-pretreated), microsomes
T2 sequence (P24557 1-533): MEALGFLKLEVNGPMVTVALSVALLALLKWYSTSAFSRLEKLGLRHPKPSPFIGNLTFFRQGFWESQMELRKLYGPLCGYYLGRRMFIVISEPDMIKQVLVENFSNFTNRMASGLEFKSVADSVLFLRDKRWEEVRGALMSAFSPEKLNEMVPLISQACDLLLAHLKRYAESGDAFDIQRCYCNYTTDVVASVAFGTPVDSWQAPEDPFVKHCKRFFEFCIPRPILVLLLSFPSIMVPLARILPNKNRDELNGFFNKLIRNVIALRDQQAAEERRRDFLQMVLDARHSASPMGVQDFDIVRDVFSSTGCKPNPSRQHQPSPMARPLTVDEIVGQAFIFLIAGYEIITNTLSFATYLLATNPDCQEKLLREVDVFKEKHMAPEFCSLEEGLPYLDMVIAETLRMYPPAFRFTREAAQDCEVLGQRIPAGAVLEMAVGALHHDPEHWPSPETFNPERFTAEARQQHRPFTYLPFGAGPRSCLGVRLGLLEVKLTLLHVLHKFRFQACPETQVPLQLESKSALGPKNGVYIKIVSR
As to the kind of experiment: Thromboxane A2 (TxA2) synthetase inhibition; Indomethacin pretreated human platelet microsomes, rabbit aorta superfusion bioassay. It counts as biochemical. Particulars: for IC50: human platelet microsomes, 5 min pre-incubation, read-out: Molar concentration causing 50% inhibition of (1) thromboxane synthetase; for Ratio of (3) to (1): prostacyclin synthetase / thromboxane synthetase 50% inhibition concentrations. The protocol: Indomethacin pretreated human platelet microsomes (Science 1976, 193, 163) are incubated (2 min.: 0° C.) with PGH2 (produced as in 1) and aliquots of the reaction mixture superfused over two rabbit aorta spirals which are separated by a delay coil (2 min.). The latter is required to allow the selective decay of the more unstable thromboxane A2 (Proc. Nat. Acad. Sci. 1975, 72, 2994) thereby enabling the separate measurement of increased isometric tension due to the TxA2 formed and the PGH2 remaining. The test compound is pre-incubated with the enzyme for 5 minutes, and its ability to inhibit the thromboxane synthetase enzyme is measured as its reduction of the TxA2 component of the isometric tension.

The next assay addresses T3, cyclo-oxygenase (Ovis aries, UniProt P05979).
T3 construct: Ram seminal vesicle microsomes; from tissue; host or cells: ram seminal vesicle microsomes
T3 sequence (P05979 25-600): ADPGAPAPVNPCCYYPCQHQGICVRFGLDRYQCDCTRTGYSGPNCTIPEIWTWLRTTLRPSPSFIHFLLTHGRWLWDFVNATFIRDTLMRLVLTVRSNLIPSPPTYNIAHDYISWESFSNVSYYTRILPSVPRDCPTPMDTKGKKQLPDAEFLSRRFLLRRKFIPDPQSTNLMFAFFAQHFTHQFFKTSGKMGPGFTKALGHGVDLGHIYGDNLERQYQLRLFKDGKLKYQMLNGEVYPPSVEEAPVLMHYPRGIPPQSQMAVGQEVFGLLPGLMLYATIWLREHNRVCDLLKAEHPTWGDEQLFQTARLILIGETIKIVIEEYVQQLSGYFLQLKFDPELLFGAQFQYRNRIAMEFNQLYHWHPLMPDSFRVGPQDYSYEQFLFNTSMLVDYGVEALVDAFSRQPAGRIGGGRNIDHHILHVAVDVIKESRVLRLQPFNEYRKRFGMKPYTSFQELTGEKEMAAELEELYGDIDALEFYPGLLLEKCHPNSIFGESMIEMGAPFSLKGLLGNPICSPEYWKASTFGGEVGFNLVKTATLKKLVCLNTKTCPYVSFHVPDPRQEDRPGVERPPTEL
As to the kind of experiment: Cyclo-oxygenase inhibition; ram seminal vesicle microsomes, rabbit aorta strip bioassay. Type of assay: biochemical. The note with it: 5 min pre-incubation, read-out: Molar concentration causing 50% inhibition of (2) cyclo-oxygenase. The protocol: Ram seminal vesicle microsomes(Biochemistry, 1971, 10, 2372) are incubated with arachidonic acid (100 μM: 1 min.: 22°) to produce PGH2 and aliquots of the reaction mixture injected into a stream of Krebs-bicarbonate at 37° C. (containing a mixture of antagonists (Nature, […], 218, 1135) and indomethacin (Brit. J. Pharmacol., 1972, 45, 451) which is superfusing a spirally-cut rabbit aorta strip (Nature, 1969, 223, 29). The ability of a compound to inhibit the enzyme is measured by comparing the increases in isometric tension produced by PGH2 in the absence of the test compound, and following pre-incubation of the enzyme with the test compound for 5 minutes.

Assay [2] concerns the target T1, prostacyclin synthetase. In words: Prostacyclin (PGI2) synthetase inhibition; pig aorta microsomes, rabbit aorta strip bioassay. Type of assay: biochemical. Particulars: 5 min pre-incubation, read-out: Molar concentration causing 50% inhibition of (3) prostacyclin synthetase. The method, then: The effect of the compounds of the formula (I) on the thromboxane synthetase enzyme, and the prostacyclin synthetase and cyclo-oxygenase enzymes has been measured by the following in vitro enzyme assays:
Pig aorta microsomes (Nature, 1976, 263, 663) are incubated (30 sec.; 22° C.) with PGH2 produced as in 1) and aliquots bio-assayed as in 1. […] The test compound is then pre-incubated with the enzyme for 5 minutes, and its ability to prevent the decrease in tension is measured.
The results of these tests are shown in the following Table, which gives the molar concentration of each compound which caused a 50% change in the effect of the relevant enzyme on isometric tension, i.e. caused a 50% inhibition of the action of that enzyme.

The subject of assay [3] is human blood platelet aggregation. As to the kind of experiment: in vitro inhibition of human blood platelet aggregation. It counts as cell-based. Particulars: human platelets, qualitative. From the text:
In addition to the above as in vitro assay for measuring the inhibition of human blood platelet aggregation has been described and this may be predictive of anti-thrombotic efficacy clinically (Lancet (ii), 1974, 1223; J. Exp. Med., 1967, 126, 171).

Assay [4] has the same test system. The note with it: human blood platelets; literature; cited from earlier work.
In the next assay the test system is rabbits. The note with it: intravenous arachidonic acid, literature; cited from earlier work.
For the next assay, the system named is cyclo-oxygenase enzyme. Particulars: background statement; cited from earlier work.
Another assay relates to aggregation of platelets. Particulars: rat abdominal aorta, in vivo; literature; cited from earlier work.

Counter-ions that a name gives are not always drawn. Some results are limits rather than exact numbers.

With `CCCCCC(/C=C/C=C\C/C=C\C/C=C\CCCC(=O)O)OO` (stereo not shown) [15-hydroperoxy-arachidonic acid], the “prevention of the decrease in PGH2-induced tension (PGI2 synthetase inhibition)” value at prostacyclin synthetase [1] is listed as “prevented completely”.

Consider `NC(=O)c1ccc(OCCn2ccnc2)cc1` [Example 1, 1-[2-(4-Carbamoylphenoxy)ethyl]imidazole], for which the values for the IC50 at thromboxane synthetase, on cyclo-oxygenase and at prostacyclin synthetase [2] were 22 nM, over 100000 nM and over 100000 nM, respectively. Moreover, on thromboxane synthetase, the “Ratio of (3) to (1)” value is > 4,500.

`NC(=O)c1ccccc1OCCn1ccnc1` [Example 2]: the IC50 on thromboxane synthetase worked out at 10000 nM.

As for `NC(=O)Cc1ccc(OCCn2ccnc2)cc1` [Example 3], the IC50 on thromboxane synthetase is 1000 nM.

Take `CCOC(=O)c1ccccc1OCCn1ccnc1` [Example 4, 1-[2-(2-ethoxycarbonyl-phenoxy)ethyl]imidazole]: on thromboxane synthetase, the IC50 was 40 nM and the “Ratio of (3) to (1)” value is listed as > 2,500. Also, on prostacyclin synthetase [2], the IC50 is over 100000 nM.

Turning to `CCOC(=O)Cc1cccc(OCCn2ccnc2)c1` [Example 7], on thromboxane synthetase, the IC50 was determined as 46 nM and the “Ratio of (3) to (1)” value is listed as 2,200. In addition, at prostacyclin synthetase [2], the IC50 was determined as 100000 nM.

Regarding `CCOC(=O)Cc1ccc(OCCn2ccnc2)cc1` [Example 8], on thromboxane synthetase, the IC50 was 34 nM and the “Ratio of (3) to (1)” value is recorded as > 2,900. Further, on prostacyclin synthetase [2], the IC50 was over 100000 nM.

On to `O=C(O)c1ccc(OCCn2ccnc2)cc1` [Example 16, 1-[2-(4-Carboxyphenoxy)ethyl]imidazole], for which the IC50 at prostacyclin synthetase [2] is over 100000 nM. For the same compound, the “preventing human blood platelet aggregation” value in assay [3] is given as “effective in preventing human blood platelet aggregation”.

As to `O=C(O)c1ccccc1OCCn1ccnc1` [Example 17, 1-[2-(2-Carboxyphenoxy)ethyl]imidazole Hydrochloride], the IC50 at thromboxane synthetase came out at 34000 nM.

Take `O=C(O)COc1ccc(OCCn2ccnc2)cc1` [Example 18, 4-[2-(1-Imidazolyl)ethoxy]phenoxyacetic acid Hydrochloride]: the IC50 at thromboxane synthetase amounted to 4.2 nM.

For `O=C(O)Cc1ccccc1OCCn1ccnc1` [Example 19, 2-[2-(1-Imidazolyl)ethoxy]phenylacetic acid Hydrochloride], on thromboxane synthetase, the IC50 was found to be 580 nM.

For `O=C(O)c1cccc(OCCn2ccnc2)c1` [Example 21, 1-[2-(3-Carboxyphenoxy)ethyl]imidazole Hydrochloride], the IC50 at thromboxane synthetase is 12 nM.

Take `c1cn(CCOc2ccc(-c3nnn[nH]3)cc2)cn1` [Example 22, 1-[2-(4-Tetrazol-5-ylphenoxy)ethyl]imidazole]: on thromboxane synthetase, the IC50 stood at 4.9 nM.

With `NC(=O)COc1ccc(OCCn2ccnc2)cc1` [Example 23, 4-[2-(1-Imidazolyl)ethoxy]phenoxyacetamide], at thromboxane synthetase, the IC50 turned out to be 16 nM.

For the compound `CNC(=O)c1ccc(OCCn2ccnc2)cc1` [Example 24, 1-[2-(4-N-Methylcarbamoylphenoxy)ethyl]imidazole], the results for the IC50 on thromboxane synthetase, on cyclo-oxygenase and at prostacyclin synthetase [2] were 5 nM, over 100000 nM and over 100000 nM, respectively. Moreover, the “Ratio of (3) to (1)” value on thromboxane synthetase is given as > 20,000.

For the compound `CN(C)C(=O)c1ccc(OCCn2ccnc2)cc1` [Example 25, 1-[2-(4-N,N-Dimethylcarbamoylphenoxy)ethyl]imidazole], the IC50 on thromboxane synthetase is 5.6 nM; on cyclo-oxygenase, over 100000 nM; on prostacyclin synthetase [2], over 100000 nM. Besides, the “Ratio of (3) to (1)” value at thromboxane synthetase is given as > 18,000.

Turning to `O=C(c1ccc(OCCn2ccnc2)cc1)N1CCOCC1` [Example 26, 1-[4-(2-Imidazol-1-yl)ethoxybenzoyl]morpholine], the IC50 on thromboxane synthetase came to 10000 nM.

For the compound `NC(=O)Cc1ccccc1OCCn1ccnc1` [Example 39, 1-[2-(2-Carbamoylmethylphenoxy)ethyl]imidazole], the IC50 at thromboxane synthetase stood at 6600 nM.

Take `CC(=O)Oc1ccccc1C(=O)O` [aspirin]: the “inhibitory activity in vitro against a variety of aggregating agents” value in assay [4] is “show inhibitory activity in vitro against a variety of aggregating agents”. Further, in the assay on rabbits, the “protect the rabbit from the lethal effect of the injection” value is recorded as “protect the rabbit from the lethal effect of the injection”. In addition, in the assay with cyclo-oxygenase enzyme, the “inhibition of the cyclo-oxygenase enzyme” value was “inhibit the cyclo-oxygenase enzyme”.

`O=C1C(CC[S+]([O-])c2ccccc2)C(=O)N(c2ccccc2)N1c1ccccc1` (stereo not shown) [sulphinpyrazone]: in assay [4], the “inhibitory activity in vitro against a variety of aggregating agents” value is recorded as “show inhibitory activity in vitro against a variety of aggregating agents”. For the same compound, the “protect the rabbit from the lethal effect of the injection” value in the assay on rabbits is on record as “protect the rabbit from the lethal effect of the injection”. In the assay on aggregation of platelets, the “prevent the aggregation of platelets in an extra corporeal loop” value is reported as “prevent the aggregation of platelets in an extra corporeal loop of the abdominal aorta of rats in vivo”.
